In brackets after ≈: the same amount, converted by molar mass.
Columns and labels:
Format in all cases: functional
[1] = test system: Porphyromonas asaccharolytica; assay: Antimicrobial activity in Porphyromonas asaccharolytica by CLSI agar dilution method
Actinomyces = assay: Antimicrobial activity in Actinomyces by CLSI agar dilution method
[2] = test system: Fusobacterium necrophorum; assay: Antimicrobial activity in Fusobacterium necrophorum by CLSI agar dilution method
Clostridium tertium = assay: Antimicrobial activity in Clostridium tertium by CLSI agar dilution method
Prevotella nigrescens = assay: Antimicrobial activity in Prevotella nigrescens by CLSI agar dilution method
Prevotella bergensis = assay: Antimicrobial activity in Prevotella bergensis by CLSI agar dilution method; conditions: Hallella bergensis
Prevotella sp. = assay: Antimicrobial activity in Prevotella sp.by CLSI agar dilution method
Porphyromonas gingivalis = assay: Antimicrobial activity in Porphyromonas gingivalis by CLSI agar dilution method
Fusobacterium mortiferum = assay: Antimicrobial activity in Fusobacterium mortiferum by CLSI agar dilution method
Prevotella corporis = assay: Antimicrobial activity in Prevotella corporis by CLSI agar dilution method
Prevotella bivia = assay: Antimicrobial activity in Prevotella bivia by CLSI agar dilution method
Fusobacterium nucleatum = assay: Antimicrobial activity in Fusobacterium nucleatum by CLSI agar dilution method
Prevotella disiens = assay: Antimicrobial activity in Prevotella disiens by CLSI agar dilution method
Prevotella intermedia = assay: Antimicrobial activity in Prevotella intermedia by CLSI agar dilution method
[3] = test system: Enterocloster clostridioformis; assay: Antimicrobial activity in Clostridium clostridioforme by CLSI agar dilution method
[4] = test system: Peptostreptococcus anaerobius; assay: Antimicrobial activity in Peptostreptococcus anaerobius by CLSI agar dilution method
Hoylesella oralis = assay: Antimicrobial activity in Prevotella oralis group by CLSI agar dilution method
Bacteroides stercoris = assay: Antimicrobial activity in Bacteroides stercoris by CLSI agar dilution method
Clostridium sp. = assay: Antimicrobial activity in Clostridium sp. by CLSI agar dilution method
[5] = test system: Prevotella melaninogenica; assay: Antimicrobial activity in Prevotella melaninogenica by CLSI agar dilution method
Bifidobacterium = assay: Antimicrobial activity in Bifidobacterium by CLSI agar dilution method
Tissierella praeacuta = assay: Antimicrobial activity in Clostridium hastiforme by CLSI agar dilution method
Prevotella baroniae = assay: Antimicrobial activity in Prevotella baroniae by CLSI agar dilution method; conditions: Segatella baroniae
Bacteroides fragilis = assay: Antimicrobial activity in Bacteroides fragilis by CLSI agar dilution method
Bacteroides uniformis = assay: Antimicrobial activity in Bacteroides uniformis by CLSI agar dilution method
Hoylesella loescheii = assay: Antimicrobial activity in Prevotella loescheii by CLSI agar dilution method
[6] = test system: Bacteroides thetaiotaomicron; assay: Antimicrobial activity in Bacteroides thetaiotaomicron by CLSI agar dilution method
Fusobacterium varium = assay: Antimicrobial activity in Fusobacterium varium by CLSI agar dilution method
Phocaeicola vulgatus = assay: Antimicrobial activity in Bacteroides vulgatus by CLSI agar dilution method
Clostridium perfringens = assay: Antimicrobial activity in Clostridium perfringens by CLSI agar dilution method
Anaerococcus prevotii = assay: Antimicrobial activity in Anaerococcus prevotii by CLSI agar dilution method
Prevotella veroralis = assay: Antimicrobial activity in Prevotella veroralis by CLSI agar dilution method
[Clostridium] innocuum = Antimicrobial activity in Clostridium innocuum by CLSI agar dilution method
Clostridium cadaveris = assay: Antimicrobial activity in Clostridium cadaveris by CLSI agar dilution method
Clostridioides difficile = assay: Antimicrobial activity in Clostridium difficile by CLSI agar dilution method
Cutibacterium acnes = assay: Antimicrobial activity in Propionibacterium acnes by CLSI agar dilution method
Eggerthella lenta = assay: Antimicrobial activity in Eggerthella lenta by CLSI agar dilution method
[7] = test system: Paraclostridium bifermentans; assay: Antimicrobial activity in Clostridium bifermentans by CLSI agar dilution method
Prevotella salivae = assay: Antimicrobial activity in Prevotella salivae by CLSI agar dilution method; conditions: Segatella salivae
Finegoldia magna = assay: Antimicrobial activity in Finegoldia magna by CLSI agar dilution method
Clostridium butyricum = assay: Antimicrobial activity in Clostridium butyricum by CLSI agar dilution method
Prevotella denticola = assay: Antimicrobial activity in Prevotella denticola by CLSI agar dilution method
Lactobacillus = assay: Antimicrobial activity in Lactobacillus by CLSI agar dilution method
[8] = test system: Paeniclostridium sordellii; assay: Antimicrobial activity in Clostridium sordellii by CLSI agar dilution method; conditions: Paraclostridium sordellii
Anaerococcus tetradius = assay: Antimicrobial activity in Anaerococcus tetradius by CLSI agar dilution method
[9] = test system: Parabacteroides distasonis; assay: Antimicrobial activity in Bacteroides distasonis by CLSI agar dilution method
Thomasclavelia ramosa = assay: Antimicrobial activity in Clostridium ramosum by CLSI agar dilution method
[10] = test system: Peptoniphilus asaccharolyticus; assay: Antimicrobial activity in Peptoniphilus asaccharolyticus by CLSI agar dilution method
Bacteroides ovatus = assay: Antimicrobial activity in Bacteroides ovatus by CLSI agar dilution method
Parvimonas micra = assay: Antimicrobial activity in Micromonas micros by CLSI agar dilution method
Prevotella buccae = assay: Antimicrobial activity in Prevotella buccae by CLSI agar dilution method; conditions: Segatella buccae

## Cc1ncc([N+](=O)[O-])n1CCO [METRONIDAZOLE]
[1]
  MIC: ≤ 0.125 µg/mL
Actinomyces
  MIC: > 1 µg/mL
  MIC50: > 16 µg/mL
[2]
  MIC: ≤ 0.125 µg/mL
  MIC50: 0.25 µg/mL (≈ 1.46 µM)
Clostridium tertium
  MIC: 0.5 µg/mL (≈ 2.92 µM)
  MIC50: 1 µg/mL (≈ 5.84 µM)
Prevotella nigrescens
  MIC50: 0.5 µg/mL (≈ 2.92 µM)
  MIC90: 1 µg/mL (≈ 5.84 µM)
Prevotella bergensis
  MIC: 0.5 µg/mL (≈ 2.92 µM)
Prevotella sp.
  MIC: 0.5 µg/mL (≈ 2.92 µM)
Porphyromonas gingivalis
  MIC: ≤ 0.125 µg/mL
Fusobacterium mortiferum
  MIC50: 0.25 µg/mL (≈ 1.46 µM)
  MIC90: 0.5 µg/mL (≈ 2.92 µM)
Prevotella corporis
  MIC: ≤ 0.125 µg/mL
  MIC50: 0.5 µg/mL (≈ 2.92 µM)
Prevotella bivia
  MIC50: 2 µg/mL (≈ 11.7 µM)
  MIC90: 4 µg/mL (≈ 23.4 µM)
Fusobacterium nucleatum
  MIC: ≤ 0.125 µg/mL
  MIC50: ≤ 0.125 µg/mL
  MIC90: 0.5 µg/mL (≈ 2.92 µM)
Prevotella disiens
  MIC: 1 µg/mL (≈ 5.84 µM)
  MIC50: 1 µg/mL (≈ 5.84 µM)
Prevotella intermedia
  MIC50: 0.5 µg/mL (≈ 2.92 µM)
  MIC90: 1 µg/mL (≈ 5.84 µM)
[3]
  MIC: ≤ 0.125 µg/mL
[4]
  MIC50: 0.5 µg/mL (≈ 2.92 µM)
  MIC90: 1 µg/mL (≈ 5.84 µM)
Hoylesella oralis
  MIC: ≤ 0.125 µg/mL
Bacteroides stercoris
  MIC: 1 µg/mL (≈ 5.84 µM)
  MIC50: 1 µg/mL (≈ 5.84 µM)
Clostridium sp.
  MIC50: 1 µg/mL (≈ 5.84 µM)
  MIC90: 1 µg/mL (≈ 5.84 µM)
[5]
  MIC50: 0.5 µg/mL (≈ 2.92 µM)
  MIC90: 1 µg/mL (≈ 5.84 µM)
Bifidobacterium
  MIC50: > 16 µg/mL
  MIC90: > 16 µg/mL
Tissierella praeacuta
  MIC: 0.25 µg/mL (≈ 1.46 µM)
Prevotella baroniae
  MIC: 0.5 µg/mL (≈ 2.92 µM)
Bacteroides fragilis
  MIC50: 1 µg/mL (≈ 5.84 µM)
  MIC90: 1 µg/mL (≈ 5.84 µM)
Bacteroides uniformis
  MIC: 0.5 µg/mL (≈ 2.92 µM)
  MIC50: 0.5 µg/mL (≈ 2.92 µM)
Hoylesella loescheii
  MIC: 0.5 µg/mL (≈ 2.92 µM)
[6]
  MIC: 1 µg/mL (≈ 5.84 µM)
  MIC50: 1 µg/mL (≈ 5.84 µM)
  MIC90: 2 µg/mL (≈ 11.7 µM)
Fusobacterium varium
  MIC50: 0.25 µg/mL (≈ 1.46 µM)
  MIC90: 0.5 µg/mL (≈ 2.92 µM)
Phocaeicola vulgatus
  MIC50: 0.5 µg/mL (≈ 2.92 µM)
  MIC90: 1 µg/mL (≈ 5.84 µM)
Clostridium perfringens
  MIC50: 1 µg/mL (≈ 5.84 µM)
  MIC90: 1 µg/mL (≈ 5.84 µM)
Anaerococcus prevotii
  MIC: 1 µg/mL (≈ 5.84 µM)
Prevotella veroralis
  MIC: 0.25 µg/mL (≈ 1.46 µM)
[Clostridium] innocuum
  MIC: ≤ 0.125 µg/mL
Clostridium cadaveris
  MIC: ≤ 0.125 µg/mL
Clostridioides difficile
  MIC50: 0.5 µg/mL (≈ 2.92 µM)
  MIC90: 0.5 µg/mL (≈ 2.92 µM)
Cutibacterium acnes
  MIC: > 16 µg/mL
  MIC50: > 16 µg/mL
  MIC90: > 16 µg/mL
Eggerthella lenta
  MIC50: 0.5 µg/mL (≈ 2.92 µM)
  MIC90: 0.5 µg/mL (≈ 2.92 µM)
[7]
  MIC: 0.25 µg/mL (≈ 1.46 µM)
Prevotella salivae
  MIC: ≤ 0.125 µg/mL
Finegoldia magna
  MIC50: 0.5 µg/mL (≈ 2.92 µM)
  MIC90: 1 µg/mL (≈ 5.84 µM)
Clostridium butyricum
  MIC: ≤ 0.125 µg/mL
Prevotella denticola
  MIC50: 0.5 µg/mL (≈ 2.92 µM)
  MIC90: 1 µg/mL (≈ 5.84 µM)
Lactobacillus
  MIC: > 16 µg/mL
  MIC50: > 16 µg/mL
  MIC90: 16 µg/mL (≈ 93.5 µM)
[8]
  MIC: 1 µg/mL (≈ 5.84 µM)
Anaerococcus tetradius
  MIC50: 1 µg/mL (≈ 5.84 µM)
  MIC90: 1 µg/mL (≈ 5.84 µM)
[9]
  MIC50: 1 µg/mL (≈ 5.84 µM)
  MIC90: 1 µg/mL (≈ 5.84 µM)
Thomasclavelia ramosa
  MIC: 1 µg/mL (≈ 5.84 µM)
[10]
  MIC: ≤ 0.125 µg/mL
  MIC50: 1 µg/mL (≈ 5.84 µM)
Bacteroides ovatus
  MIC50: 1 µg/mL (≈ 5.84 µM)
  MIC90: 1 µg/mL (≈ 5.84 µM)
Parvimonas micra
  MIC50: 0.25 µg/mL (≈ 1.46 µM)
  MIC90: 0.5 µg/mL (≈ 2.92 µM)
Prevotella buccae
  MIC50: 1 µg/mL (≈ 5.84 µM)
  MIC90: 2 µg/mL (≈ 11.7 µM)

Source: ChEMBL document CHEMBL1649156, “Antianaerobic activity of sulopenem compared to six other agents” (2009)
